Experimental data: PMC9469097 (Frontiers in Pharmacology, 2022)
Like-named read-outs stand apart in the source and are kept apart here.

Tests used:
[1] = biological target: CYP3A4 (Homo sapiens, UniProt P08684); assay: CYP3A4-catalyzed NEN 4-hydroxylation in HLMs (fluorescence-based assay)
Experimental: In brief, PBS (pH 7.4, 100 mM), herbal medicines (100 μg/ml, final concentration)/PTAs/solvent, NEN, G-6-P, G-6-PDH, MgCl2, and HLMs were added to the 96-well plate in turn, then the samples were vortexed and pre-incubated for 3 min at 37 °C. The oxidative reactions were initiated by adding β-NADP^+ to yield a final volume of 200 μl, then the formation rates of NEHN (hydroxylated metabolite of NEN) were continuously monitored for 30 min at 37 °C using a 96-well fluorescence microplate reader (SpectraMax® iD3, Molecular Devices, Austria). The percentage of organic solvent in all incubation is not over 1%.

[2] = biological target: CYP3A (Homo sapiens, UniProt P08684); assay: CYP3A-catalyzed midazolam 1′-hydroxylation in HLMs; type: biochemical; details: for IC50 at 30 min: human
Experimental: Following incubation for 30 min at 37 °C, and 200 μl ice-cold acetonitrile containing internal standard (IS, 90 ng/ml) was subsequently added to quench the oxidative reaction. The mixture was then centrifuged at 20,000 ×g, 4 °C for 20 min, and the supernatant was quantified by LC-MS/MS analysis as described in Supplementary Table S2.

[3] = Stability tests for target pentacyclic triterpenoid acids
[4] = Tissue distribution of PTAs of Styrax in rats; details: for exposure in rat plasma and rat liver: after single oral dose of Styrax (100 mg/kg)
Experimental: Nine Male Sprague-Dawley rats (250–300 g) were purchased from Shanghai Sippe-Bk Lab Animal Co., Ltd. (Shanghai, China) and were fed in Experimental Animal Center of SHUTCM. […] The rats were fasted overnight before dosing but were free to drink water. Nine rats were randomly divided into three groups (1, 2, and 4 h). […] Blood samples were collected from the abdominal aorta, and the tissues (including the liver, duodenum, jejunum, ileum and colon) were removed rapidly and placed on ice. After then, the blood samples were centrifuged at 8,000 rpm, 4 °C for 10 min, and the supernatant was stored at −80 °C until analysis.
Firstly, each tissue (such as liver, duodenum, jejunum, ileum, colon) was accurately weighed after sucking the water on tissue surface. Each tissue was put into an EP tube and then cut (3-5 times) by a scissor. After then, PBS (pH 7.4) and magnetic beads were added into EP tube, grind the tissue by a tissue grinder. The tissue grinding fluid was centrifuged at 9,000 g, 4 °C for 20 min. 50 μl tissue supernatant was diluted by adding 250 μl LC grade acetonitrile. The protein was precipitated by centrifuging at 20,000 ×g, 4 °C for 30 min and the supernatant was collected to determine the protein concentration by a BCA Protein Quantification Kit. After then, the concentrations of seven PTAs were determined by using UHPLC-Q-Orbitrap HRMS analysis.

[5] = Pharmacokinetic interaction between Styrax and midazolam (i.v. and i.g.) in rats; details: for AUC(0-inf) / Cmax / half-life: male, Sprague-Dawley, rat, plasma; for half-life: t1/2, rats
[6] = iv, 5 mg/kg, rats, midazolam i.v. 5 mg/kg, pretreated with Soybean oil
[7] = iv, 5 mg/kg, rats, midazolam i.v. 5 mg/kg, pretreated with Styrax i.g. 100 mg/kg
[8] = po, 20 mg/kg, rats, midazolam i.g. 20 mg/kg, pretreated with Soybean oil
[9] = po, 20 mg/kg, rats, midazolam i.g. 20 mg/kg, pretreated with Styrax i.g. 100 mg/kg
[10] = rats, midazolam i.g. 20 mg/kg, Styrax + midazolam vs Soybean oil + midazolam (fold)
[11] = rats, midazolam i.v. 5 mg/kg, Styrax + midazolam vs Soybean oil + midazolam

CYP3A4, sequence (P08684 whole entry): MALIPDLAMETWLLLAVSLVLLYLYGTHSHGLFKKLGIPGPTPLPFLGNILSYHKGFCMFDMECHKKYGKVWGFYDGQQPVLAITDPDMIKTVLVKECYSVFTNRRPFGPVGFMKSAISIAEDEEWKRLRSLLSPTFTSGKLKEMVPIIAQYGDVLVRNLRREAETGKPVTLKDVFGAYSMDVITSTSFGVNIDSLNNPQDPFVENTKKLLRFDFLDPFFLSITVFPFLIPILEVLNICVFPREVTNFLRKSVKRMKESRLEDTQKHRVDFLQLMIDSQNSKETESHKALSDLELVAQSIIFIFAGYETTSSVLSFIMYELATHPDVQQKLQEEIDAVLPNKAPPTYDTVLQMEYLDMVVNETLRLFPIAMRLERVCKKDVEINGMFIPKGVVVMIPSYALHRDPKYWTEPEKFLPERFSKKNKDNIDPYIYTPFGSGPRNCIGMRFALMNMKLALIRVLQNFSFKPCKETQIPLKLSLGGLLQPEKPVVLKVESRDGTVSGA
CYP3A, sequence (P08684 2-503): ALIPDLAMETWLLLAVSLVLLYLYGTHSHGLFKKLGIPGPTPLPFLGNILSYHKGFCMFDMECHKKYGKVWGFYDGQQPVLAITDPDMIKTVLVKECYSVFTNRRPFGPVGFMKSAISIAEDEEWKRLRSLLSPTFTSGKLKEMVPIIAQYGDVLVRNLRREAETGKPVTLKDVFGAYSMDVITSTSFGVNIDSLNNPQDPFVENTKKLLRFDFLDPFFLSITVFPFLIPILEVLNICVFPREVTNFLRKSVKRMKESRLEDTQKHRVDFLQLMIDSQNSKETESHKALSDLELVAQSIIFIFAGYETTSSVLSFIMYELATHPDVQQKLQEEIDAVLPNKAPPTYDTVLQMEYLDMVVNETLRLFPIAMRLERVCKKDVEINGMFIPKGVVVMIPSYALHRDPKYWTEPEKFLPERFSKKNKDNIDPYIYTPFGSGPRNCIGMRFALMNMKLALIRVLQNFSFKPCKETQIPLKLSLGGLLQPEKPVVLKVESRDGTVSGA

| SMILES | IC50 [1] | exposure in rat plasma and rat liver [4] | IC50 at 30 min ([2]; microsomes, pH 7.4) | Stability, 4 ℃ Refrigerator (3 day, %) ([3]; nominal level 3.28 nmol/L) | Stability, -20℃ freeze-thaw (3 times, %) ([3]; nominal level 3.28 nmol/L) | Stability, Room temperature (24 h, %) ([3]; nominal level 3.28 nmol/L) | Stability, 4 ℃ Refrigerator (3 day, %) ([3]; nominal level 20.48 nmol/L) | Stability, -20℃ freeze-thaw (3 times, %) ([3]; nominal level 20.48 nmol/L) | Stability, Room temperature (24 h, %) ([3]; nominal level 20.48 nmol/L) | Stability, 4 ℃ Refrigerator (3 day, %) ([3]; nominal level 128.00 nmol/L) | Stability, -20℃ freeze-thaw (3 times, %) ([3]; nominal level 128.00 nmol/L) | Stability, Room temperature (24 h, %) ([3]; nominal level 128.00 nmol/L) | further results |
| --- | --- | --- | --- | --- | --- | --- | --- | --- | --- | --- | --- | --- | --- |
| C[C@H]1[C@H](C)CC[C@]2(C(=O)O)CC[C@]3(C)C(=CC[C@@H]4[C@@]5(C)C[C@@H](O)[C@H](O)C(C)(C)[C@@H]5CC[C@]43C)[C@H]12 [corosolic acid] | 41.9 ± 11.7 µM |  |  |  |  |  |  |  |  |  |  |  | IC50 at 30 min ([2]; human liver microsomes, pH 7.4, probe midazolam (1′-hydroxylation), midazolam 1′-hydroxylation, HLMs, read-out: IC50): 32.2 ± 5.63 µM; Stability, 4 ℃ Refrigerator (3 day, %) ([3]; nominal level 8.19 nmol/L): 105.13%; Stability, -20℃ freeze-thaw (3 times, %) ([3]; nominal level 8.19 nmol/L): 104.46%; Stability, Room temperature (24 h, %) ([3]; nominal level 8.19 nmol/L): 99.78%; Stability, 4 ℃ Refrigerator (3 day, %) ([3]; nominal level 51.20 nmol/L): 104.14%; Stability, -20℃ freeze-thaw (3 times, %) ([3]; nominal level 51.20 nmol/L): 100.45%; Stability, Room temperature (24 h, %) ([3]; nominal level 51.20 nmol/L): 99.91%; Stability, 4 ℃ Refrigerator (3 day, %) ([3]; nominal level 320.00 nmol/L): 97.82%; Stability, -20℃ freeze-thaw (3 times, %) ([3]; nominal level 320.00 nmol/L): 98.31%; Stability, Room temperature (24 h, %) ([3]; nominal level 320.00 nmol/L): 96.69% |
| C=C(C)[C@@H]1CC[C@]2(C(=O)O)CC[C@]3(C)[C@H](CC[C@@H]4[C@@]5(C)CC[C@@H](O)C(C)(C)[C@@H]5CC[C@]43C)[C@@H]12 [epibetulinic acid] | 0.47 ± 0.08 µM | very low exposure levels | 0.64 ± 0.1 µM | 113.34% | 109.83% | 104.88% | 105.44% | 106.94% | 96.59% | 107.19% | 110.52% | 106.30% |  |
| CC1(C)CC[C@]2(C(=O)O)CC[C@]3(C)C(=CC[C@@H]4[C@@]5(C)C[C@@H](O)[C@H](O)C(C)(C)[C@@H]5CC[C@]43C)[C@@H]2C1 [maslinic acid] | 3.44 ± 0.77 µM | could not be detected | 19.4 ± 3.04 µM |  |  |  |  |  |  |  |  |  | Stability, 4 ℃ Refrigerator (3 day, %) ([3]; nominal level 8.19 nmol/L): 101.20%; Stability, -20℃ freeze-thaw (3 times, %) ([3]; nominal level 8.19 nmol/L): 100.54%; Stability, Room temperature (24 h, %) ([3]; nominal level 8.19 nmol/L): 95.84%; Stability, 4 ℃ Refrigerator (3 day, %) ([3]; nominal level 51.20 nmol/L): 103.76%; Stability, -20℃ freeze-thaw (3 times, %) ([3]; nominal level 51.20 nmol/L): 100.05%; Stability, Room temperature (24 h, %) ([3]; nominal level 51.20 nmol/L): 99.51%; Stability, 4 ℃ Refrigerator (3 day, %) ([3]; nominal level 320.00 nmol/L): 97.98%; Stability, -20℃ freeze-thaw (3 times, %) ([3]; nominal level 320.00 nmol/L): 98.47%; Stability, Room temperature (24 h, %) ([3]; nominal level 320.00 nmol/L): 96.85% |
| Cc1ncc2n1-c1ccc(Cl)cc1C(c1ccccc1F)=NC2 [midazolam] |  |  |  |  |  |  |  |  |  |  |  |  | AUC(0-inf) [5, 6]: 1320 ± 130 ng·h/mL; AUC(0-inf) [5, 7]: 1200 ± 114 ng·h/mL; Cmax [5, 6]: 3260 ± 708 ng/mL; Cmax [5, 7]: 3370 ± 570 ng/mL; half-life ([5]; iv, 5 mg/kg, midazolam i.v. 5 mg/kg, pretreated with Styrax i.g. 100 mg/kg): 0.52 ± 0.14 h; AUC(0-inf) [5, 8]: 211 ± 87.2 ng·h/mL; AUC(0-inf) [5, 9]: 431 ± 217 ng·h/mL; Cmax [5, 8]: 129 ± 111 ng/mL; Cmax [5, 9]: 294 ± 277 ng/mL; half-life ([5]; po, 20 mg/kg, midazolam i.g. 20 mg/kg, pretreated with Soybean oil): 2.14 ± 0.28 h; half-life ([5]; po, 20 mg/kg, midazolam i.g. 20 mg/kg, pretreated with Styrax i.g. 100 mg/kg): 4.52 ± 3.96 h; Tmax Ratio ([5]; rats, midazolam i.g. 20 mg/kg, Styrax + midazolam vs Soybean oil + midazolam): 1.00; AUC(0-inf) Ratio [5, 10]: 2.04; Cmax Ratio [5, 10]: 2.28; t1/2 Ratio [5, 10]: 2.11; AUC(0-inf) Ratio [5, 11]: 0.91; Cmax Ratio [5, 11]: 1.03; Tmax Ratio [5, 11]: 1.00; t1/2 Ratio [5, 11]: 0.59; t1/2 ([5]; rats, midazolam i.v. 5 mg/kg, pretreated with Soybean oil): 0.88 ± 0.28 h |
| C=C(C)[C@@H]1CC[C@]2(C(=O)O)CC[C@]3(C)[C@H](CC[C@@H]4[C@@]5(C)CC[C@H](O)C(C)(C)[C@@H]5CC[C@]43C)[C@@H]12 [betulinic acid] | 4.11 ± 0.8 µM | could not be detected | 7.74 ± 0.95 µM | 100.20% | 104.81% | 98.14% | 102.78% | 99.04% | 102.89% | 102.12% | 110.33% | 103.89% |  |
| C=C(C)[C@@H]1CC[C@]2(C(=O)O)CC[C@]3(C)[C@H](CC[C@@H]4[C@@]5(C)CCC(=O)C(C)(C)[C@@H]5CC[C@]43C)[C@@H]12 [betulonic acid] |  |  |  |  |  |  |  |  |  |  |  |  | IC50 ([1]; NEN 4-hydroxylation, HLMs): 0.96 ± 0.14 µM; IC50 ([2]; midazolam 1′-hydroxylation, HLMs): 2.51 ± 0.34 µM |
| CC1(C)CC[C@]2(C(=O)O)CC[C@]3(C)C(=CC[C@@H]4[C@@]5(C)CC[C@H](O)C(C)(C)[C@@H]5CC[C@]43C)[C@@H]2C1 [oleanolic acid] |  | very low exposure levels | 14.8 ± 2.34 µM | 105.69% | 103.79% | 103.28% | 102.19% | 105.51% | 99.64% | 104.96% | 105.16% | 99.00% |  |
| CC1(C)CC[C@]2(C(=O)O)CC[C@]3(C)C(=CC[C@@H]4[C@@]5(C)CCC(=O)C(C)(C)[C@@H]5CC[C@]43C)[C@@H]2C1 [oleanonic acid] | 0.8 ± 0.06 µM | very low exposure levels | 0.99 ± 0.09 µM | 85.84% | 91.69% | 86.92% | 103.95% | 109.44% | 101.86% | 100.64% | 113.69% | 98.85% | local exposure to rat jejunum ([4]; 1 h after single oral dose of Styrax (100 mg/kg)): 745.69 nM/mg tissue protein |
